Patent publication US20160250213A1, “FORMULATIONS OF AZAINDOLE COMPOUNDS” (priority 2013, published 2016)
Counter-ions that a name gives are not always drawn. Like-named read-outs stand apart in the source and are kept apart here. Marks after values point to notes of the source that are not given here.

Tests used:
[1] = Water activity tests: competition slurry in IPA/water mixtures; assay type: physicochemical
[2] = ambient temperature
physchem = details: water, thermodynamic from solid
[3] = system: Influenza A/California/04/2009 (pndH1N1) virus; assay type: in vivo, BALB/c mice; details: 10 mg/kg p.o. twice a day for 10 days starting 2 hours prior to virus exposure
[4] = system: Influenza A/Victoria/3/75 (H3N2) virus; assay type: in vivo, BALB/c mice; details: 10 mg/kg p.o. twice a day for 10 days starting 2 hours prior to virus exposure
A/Puerto Rico/8/34 = assay type: cell-based, influenza A virus
influenza A virus = assay type: in vivo, mice
influenza A = system: influenza A; set-up: species or system mice; details: mouse, in vivo
[5] = solvent Acetonitrile, listed as Form A HCl salt of Compound (1)
[6] = solvent Chloroform, listed as Form A HCl salt of Compound (1)
[7] = solvent Dimethylsulfoxide, listed as Form A HCl salt of Compound (1)
[8] = solvent Formic acid, listed as Form A HCl salt of Compound (1)

SMILES: O=C(O)[C@H]1C2CCC(CC2)C1Nc1nc(-c2c[nH]c3ncc(F)cc23)ncc1F (stereo partly shown) [Form A of HCl salt of Compound (1).½H2O]
- form conversion in competition slurry [1]: converted to Form F
- Sol. ([2]; solvent 1,1,2-Trichloroethane, listed as Form A HCl salt of Compound (1)): <0.1 mg/mL
- Sol. ([2]; solvent 1,2-Dichloroethane, listed as Form A HCl salt of Compound (1)): 1.7 mg/mL
- Sol. ([2]; solvent 1,2-Dimethoxyethane, listed as Form A HCl salt of Compound (1)): 0.5 mg/mL
- Sol. ([2]; solvent 1,4-Dioxane, listed as Form A HCl salt of Compound (1)): 0.4 mg/mL
- Sol. ([2]; solvent 1-Butanol, listed as Form A HCl salt of Compound (1)): 2.9 mg/mL
- Sol. ([2]; solvent 1-Pentanol, listed as Form A HCl salt of Compound (1)): 3.3 mg/mL
- Sol. ([2]; solvent 1-Propanol, listed as Form A HCl salt of Compound (1)): 10.7 mg/mL
- Sol. ([2]; solvent 2-Butanol, listed as Form A HCl salt of Compound (1)): 2.9 mg/mL
- Sol. ([2]; solvent 2-Methoxyethanol, listed as Form A HCl salt of Compound (1)): 34.1 mg/mL
- Sol. ([2]; solvent 2-Methy-1-propanol, listed as Form A HCl salt of Compound (1)): 3.5 mg/mL
- Sol. ([2]; solvent 2-Propanol, listed as Form A HCl salt of Compound (1)): 3.3 mg/mL
- Sol. ([2]; solvent 3-Methyl-1-butanol, listed as Form A HCl salt of Compound (1)): 3.2 mg/mL
- Sol. ([2]; solvent Acetone, listed as Form A HCl salt of Compound (1)): 1.5 mg/mL
- Resulting Form [2, 5]: Solvate
- Sol. [2, 5]: 0.5 mg/mL
- Sol. ([2]; solvent Anisole, listed as Form A HCl salt of Compound (1)): <0.1 mg/mL
- Sol. ([2]; solvent Butyl acetate, listed as Form A HCl salt of Compound (1)): 0.2 mg/mL
- Sol. ([2]; solvent Chlorobenzene, listed as Form A HCl salt of Compound (1)): <0.1 mg/mL
- Resulting Form [2, 6]: Solvate
- Sol. [2, 6]: <0.1 mg/mL
- Sol. ([2]; solvent Cumene, listed as Form A HCl salt of Compound (1)): <0.1 mg/mL
- Sol. ([2]; solvent Cyclohexane): <0.1 mg/mL
- Sol. ([2]; solvent Dichloromethane, listed as Form A HCl salt of Compound (1)): 0.1 mg/mL
- Resulting Form [2, 7]: Solvate
- Sol. [2, 7]: 346.5 mg/mL
- Sol. ([2]; solvent Ethanol, listed as Form A HCl salt of Compound (1)): 19.9 mg/mL
- Sol. ([2]; solvent Ethyl acetate, listed as Form A HCl salt of Compound (1)): 0.2 mg/mL
- Sol. ([2]; solvent Ethyl ether, listed as Form A HCl salt of Compound (1)): 0.1 mg/mL
- Sol. ([2]; solvent Ethyl formate, listed as Form A HCl salt of Compound (1)): 0.4 mg/mL
- Resulting Form ([2]; solvent Ethylene glycol): Solvate
- Sol. ([2]; solvent Ethylene glycol, listed as Form A HCl salt of Compound (1)): 108.1 mg/mL
- Resulting Form [2, 8]: Solvate
- Sol. [2, 8]: 214.0 mg/mL
- Sol. ([2]; solvent Heptane, listed as Form A HCl salt of Compound (1)): <0.1 mg/mL
- Sol. ([2]; solvent Hexane): <0.1 mg/mL
- Sol. ([2]; solvent Isobutyl acetate, listed as Form A HCl salt of Compound (1)): 0.2 mg/mL
- Sol. ([2]; solvent Isopropyl acetate, listed as Form A HCl salt of Compound (1)): 0.4 mg/mL
- Resulting Form ([2]; solvent Methanol): Solvate
- Sol. ([2]; solvent Methanol, listed as Form A HCl salt of Compound (1)): 46.4 mg/mL
- Sol. ([2]; solvent Methyl acetate, listed as Form A HCl salt of Compound (1)): 0.6 mg/mL
- Sol. ([2]; solvent Methyl tetrahydrofuran, listed as Form A HCl salt of Compound (1)): 0.7 mg/mL
- Sol. ([2]; solvent Methylbutyl ketone, listed as Form A HCl salt of Compound (1)): 0.4 mg/mL
- Sol. ([2]; solvent Methylcyclohexane): <0.1 mg/mL
- Sol. ([2]; solvent Methylethyl ketone, listed as Form A HCl salt of Compound (1)): 0.5 mg/mL
- Sol. ([2]; solvent Nitromethane, listed as Form A HCl salt of Compound (1)): <0.1 mg/mL
- Sol. ([2]; solvent Pentane, listed as Form A HCl salt of Compound (1)): <0.1 mg/mL
- Sol. ([2]; solvent Propyl acetate, listed as Form A HCl salt of Compound (1)): 0.8 mg/mL
- Sol. ([2]; solvent Tetrahydrofuran, listed as Form A HCl salt of Compound (1)): 0.7 mg/mL
- Sol. ([2]; solvent Tetralin): <0.1 mg/mL
- Sol. ([2]; solvent Toluene, listed as Form A HCl salt of Compound (1)): <0.1 mg/mL
- stability in solvent systems ([2]; solvent systems listed in b317 (chlorobenzene to methyl tetrahydrofuran), 2 weeks): stable
- Sol. ([2]; solvent t-Butylmethylether, listed as Form A HCl salt of Compound (1)): 0.4 mg/mL
- Sol. ([2]; solvent xylene, listed as Form A HCl salt of Compound (1)): <0.1 mg/mL
- solubility thermodynamic (physchem): 600 µg/mL

SMILES: CCOC(=O)C1=C[C@@H](OC(CC)CC)[C@H](NC(C)=O)[C@@H](N)C1 [Oseltamivir, reference compound]
- Mean Lung Parameters (Day 6): Score (hemorrhage, 0 to 4) [3]: 1.0
- Mean Lung Parameters (Day 6): Virus Titer [3]: 7.9 Log10 CCID50/g
- Mean Lung Parameters (Day 6): Weight [3]: 178 mg
- Survivors/Total [3]: 10/10***
- MDD ± SD (mean day of death of mice that died on or before day 21) [4]: 7.0
- Mean Lung Parameters (Day 6): Score (hemorrhage, 0 to 4) [4]: 1.7 ± 1.1
- Mean Lung Parameters (Day 6): Virus Titer [4]: 7.0 ± 0.3 Log10 CCID50/g
- Mean Lung Parameters (Day 6): Weight [4]: 218 ± 24 mg
- Survivors/Total [4]: 9/10***
- C.I. (combination index) values at the 50% effect level (A/Puerto Rico/8/34): 0.58
- dosing initiation post infection up to which complete protection is provided (influenza A virus; 10 mg/kg BID): ≤ 24 h
- survival (influenza A virus; 10 mg/kg BID, same experiment (prophylactic)): survived
- survival (influenza A virus; mouse, in vivo): survived
- Log10 Reduction vs. Vehicle (influenza A): −0.15 Log10
- Lung Viral Titer (influenza A; 10 mg/kg): 6.05 Log10 TCID50

SMILES: CC(=O)N[C@H]1[C@H]([C@H](O)[C@H](O)CO)OC(C(=O)O)=C[C@@H]1N=C(N)N [Zanamivir]
- C.I. (combination index) values at the 50% effect level (A/Puerto Rico/8/34): 0.64
- Synergy Volume, 95% Confidence (A/Puerto Rico/8/34): 268

SMILES: O=C(O)[C@H]1C2CCC(CC2)C1Nc1nc(-c2c[nH]c3ncc(F)cc23)ncc1F (stereo partly shown) [amorphous compound (1)]
- Resulting Form ([2]; solvent 1,1,2-Trichloroethane): Amorphous
- Resulting Form ([2]; solvent 1,2-Dichloroethane): Amorphous
- Resulting Form ([2]; solvent 1,2-Dimethoxyethane): Amorphous
- Resulting Form ([2]; solvent 1,4-Dioxane): Solvate (1:1)
- Resulting Form ([2]; solvent 1-Butanol): Solvate (1:1)
- Resulting Form ([2]; solvent 1-Pentanol): Solvate(1:1)
- Resulting Form ([2]; solvent 1-Propanol): No signal
- Resulting Form ([2]; solvent 2-Butanol): Solvate(1:1)
- Resulting Form ([2]; solvent 2-Ethoxyethanol): No signal
- Resulting Form ([2]; solvent 2-Methoxyethanol): No signal
- Resulting Form ([2]; solvent 2-Methy-1-propanol): Solvate(1:1)
- Resulting Form ([2]; solvent 2-Propanol): Solvate(1:1)
- Resulting Form ([2]; solvent 3-Methyl-1-butanol): Solvate
- Resulting Form ([2]; solvent Acetone): Solvate
- Resulting Form ([2]; solvent Acetonitrile): Amorphous
- Resulting Form ([2]; solvent Anisole): Amorphous
- Resulting Form ([2]; solvent Butyl acetate): Amorphous
- Resulting Form ([2]; solvent Chlorobenzene): Amorphous
- Resulting Form ([2]; solvent Chloroform): Amorphous
- Resulting Form ([2]; solvent Cumene): Amorphous
- Resulting Form ([2]; solvent Cyclohexane): Amorphous
- Resulting Form ([2]; solvent Dichloromethane): Amorphous
- Resulting Form ([2]; solvent Dimethylsulfoxide): No signal
- Resulting Form ([2]; solvent Ethyl acetate): Amorphous
- Resulting Form ([2]; solvent Ethyl ether): Amorphous
- Resulting Form ([2]; solvent Ethyl formate): Solvate(1:1)
- Resulting Form ([2]; solvent Ethylene glycol): Solvate
- Resulting Form ([2]; solvent Formamide): Amorphous
- Resulting Form ([2]; solvent Formic acid): No signal
- Resulting Form ([2]; solvent Heptane): Solvate
- Resulting Form ([2]; solvent Hexane): Amorphous
- Resulting Form ([2]; solvent Isobutyl acetate): Amorphous
- Resulting Form ([2]; solvent Isopropyl acetate): Amorphous
- Resulting Form ([2]; solvent Methanol): Solvate
- Resulting Form ([2]; solvent Methyl acetate): Solvate
- Resulting Form ([2]; solvent Methyl tetrahydrofuran): Solvate(1:1)
- Resulting Form ([2]; solvent Methylbutyl ketone): Amorphous
- Resulting Form ([2]; solvent Methylcyclohexane): Amorphous
- Resulting Form ([2]; solvent Methylethyl ketone): Solvate(1:1)
- Resulting Form ([2]; solvent N,N-Dimethylacetamide): Solvate
- Resulting Form ([2]; solvent N,N-Dimethylformamide): No signal
- Resulting Form ([2]; solvent N-Methylpyrrolidinone): No signal
- Resulting Form ([2]; solvent Nitromethane): Amorphous
- Resulting Form ([2]; solvent Pentane): Amorphous
- Resulting Form ([2]; solvent Propyl acetate): Amorphous
- Resulting Form ([2]; solvent Tetrahydrofuran): Solvate(1:1)
- Resulting Form ([2]; solvent Tetralin): Amorphous
- Resulting Form ([2]; solvent Toluene): Amorphous
- Resulting Form ([2]; solvent Water): Amorphous
- Resulting Form ([2]; solvent acetic acid): Solvate
- Resulting Form ([2]; solvent t-Butylmethylether): Amorphous
- Resulting Form ([2]; solvent xylene): Amorphous

SMILES: NC(=O)c1nc(F)c[nH]c1=O [favipiravir]
- C.I. (combination index) values at the 50% effect level (A/Puerto Rico/8/34): 0.89
- Synergy Volume, 95% Confidence (A/Puerto Rico/8/34): 317

SMILES: CCC(CC)O[C@@H]1C=C(C(=O)O)C[C@H](N)[C@H]1NC(C)=O [oseltamivir carboxylate]
- Synergy Volume, 95% Confidence (A/Puerto Rico/8/34; Bliss Independence (Macsynergy), in combination with Compound (1)): 312
